Assays:
smallflower flatsedge = assay: Test B flood test smallflower flatsedge; assay type: in vivo, Cyperus difformis
Summary of the method: (§1)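 Flood test on plants grown to the 2-leaf stage; treated plants kept in greenhouse twelve to sixteen days, then visually rated against controls on a 0 (no effect) to 10 (complete control) scale.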

pigweed = assay: Test B pre/postemergence pigweed; assay type: in vivo, Amaranthus retroflexus
Summary of the method: (§2)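 Test chemicals in a non-phytotoxic solvent mixture with surfactant were sprayed preemergence onto planted seeds and postemergence onto plants 2 to 18 cm tall (1- to 4-leaf stage). After twelve to sixteen days in a greenhouse, injury was visually rated against untreated controls from 0 (no effect) to 10 (complete control).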

purple nutsedge = assay: Test B pre/postemergence purple nutsedge; assay type: in vivo, Cyperus rotundus
Summary of the method: as §2

giant foxtail = assay: Test B pre/postemergence giant foxtail; assay type: in vivo, Setaria faberii
Summary of the method: as §2

corn = assay: Test B pre/postemergence corn; assay type: in vivo, Zea mays
Summary of the method: as §2

rice = assay: Test B flood test rice; assay type: in vivo, Oryza sativa
Summary of the method: as §1

bamyardgrass = assay: Test B flood test barnyardgrass; assay type: in vivo, Echinochloa crus-galli
Summary of the method: as §1

wild oat = assay: Test B pre/postemergence wild oat; assay type: in vivo, Avena fatua
Summary of the method: as §2

velvetleaf = assay: Test B pre/postemergence velvetleaf; assay type: in vivo, Abutilon theophrasti
Summary of the method: as §2

crabgrass = assay: Test B pre/postemergence crabgrass; assay type: in vivo, Digitaria sanguinalis
Summary of the method: as §2

bedstraw = assay: Test B pre/postemergence bedstraw; assay type: in vivo, Galium aparine; conditions: Preemergence, Rate 62 g/ha; scale 0 to 10 (0 no effect, 10 complete control)
Summary of the method: as §2

duck salad = assay: Test B flood test duck salad; assay type: in vivo, Heteranthera limosa
Summary of the method: as §1

sugar beet = assay: Test B pre/postemergence sugar beet; assay type: in vivo, Beta vulgaris
Summary of the method: as §2

morningglory = assay: Test B pre/postemergence morningglory; assay type: in vivo, Ipomoea hederacea
Summary of the method: as §2

cocklebur = assay: Test B pre/postemergence cocklebur; assay type: in vivo, Xanthium strumarium
Summary of the method: as §2

rape = assay: Test B pre/postemergence rape; assay type: in vivo, Brassica napus
Summary of the method: as §2

wheat = assay: Test B pre/postemergence wheat; assay type: in vivo, Triticum aestivum
Summary of the method: as §2

surinam grass = assay: Test B pre/postemergence surinam grass; assay type: in vivo, Brachiaria decumbens
Summary of the method: as §2

blackgrass = assay: Test B pre/postemergence blackgrass; assay type: in vivo, Alopecurus myosuroides
Summary of the method: as §2

soybean = assay: Test B pre/postemergence soybean; assay type: in vivo, Glycine max
Summary of the method: as §2

[1] = Rate 62 g/ha, flood test species, Pre-emergence, visual evaluation after twelve to sixteen days
[2] = Rate 125 g/ha, under heading Pre-emergence, flood test species, visual evaluation after twelve to sixteen days
[3] = Rate 250 g/ha, Pre-emergence (flood test species), scale 0 to 10, 0 is no effect, 10 is complete control
[4] = Rate 500 g/ha, Pre-emergence section of Table B, 0 to 10 scale (0 no effect, 10 complete control)
[5] = Postemergence, Rate 125 g/ha, scale of 0 to 10 where 0 is no effect and 10 is complete control
[6] = Postemergence, Rate 250 g/ha, scale of 0 to 10, 0 is no effect, 10 is complete control
[7] = Postemergence, Rate 500 g/ha, scale of 0 to 10 where 0 is no effect and 10 is complete control
[8] = Preemergence, Rate 62 g/ha, scale 0 to 10 (0 no effect, 10 complete control)
[9] = Preemergence, Rate 125 g/ha, scale of 0 to 10 where 0 is no effect and 10 is complete control
[10] = Preemergence, Rate 500 g/ha, scale of 0 to 10 where 0 is no effect and 10 is complete control
[11] = Postemergence, Rate 62 g/ha, scale of 0 to 10, 0 is no effect, 10 is complete control

CCc1nc(C)c(C(C)n2c(=O)on(C(=O)N(c3ccc(Cl)cc3)C(C)C)c2=O)s1 (stereo not drawn) [Compound 590]
3: Crabgrass plant response rating (crabgrass; [10]) | Plant response rating, Morningglory (morningglory; [5]) | Morningglory plant response rating (morningglory; [6]) | Soybean plant response rating (soybean; [6]) | Plant response rating, Soybean (soybean; [7])
2: Velvetleaf plant response rating (velvetleaf; [6]) | Plant response rating, Velvetleaf (velvetleaf; [7]) | Plant response rating, Crabgrass (crabgrass; [7]) | Morningglory plant response rating (morningglory; [11])
0: Plant response rating, S. Flatsedge (0 to 10 scale, 0 is no effect, 10 is complete control) (smallflower flatsedge; [1]) | S. Flatsedge plant response rating (0 to 10 scale, 0 is no effect, 10 is complete control) (smallflower flatsedge; [2]) | S. Flatsedge plant response rating (smallflower flatsedge; [3]) | S. Flatsedge plant response rating (smallflower flatsedge; [4]) | Plant response rating, Redroot pigweed (pigweed; [5]) | Redroot pigweed plant response rating (pigweed; [6]) | Plant response rating, Redroot pigweed (pigweed; [7]) | Redroot pigweed plant response rating (pigweed; [8]) | Redroot pigweed plant response rating (pigweed; [9]) | Redroot pigweed plant response rating (pigweed; [10]) | Nutsedge plant response rating (purple nutsedge; [11]) | Plant response rating, Nutsedge (purple nutsedge; [5]) | Nutsedge plant response rating (purple nutsedge; [6]) | Plant response rating, Nutsedge (purple nutsedge; [7]) | Nutsedge plant response rating (purple nutsedge; [8]) | Nutsedge plant response rating (purple nutsedge; [9]) | Nutsedge plant response rating (purple nutsedge; [10]) | Giant foxtail plant response rating (giant foxtail; [11]) | Plant response rating, Giant foxtail (giant foxtail; [5]) | Giant foxtail plant response rating (giant foxtail; [6]) | Plant response rating, Giant foxtail (giant foxtail; [7]) | Giant foxtail plant response rating (giant foxtail; [8]) | Giant foxtail plant response rating (giant foxtail; [9]) | Corn plant response rating (corn; [11]) | Plant response rating, Corn (corn; [5]) | Corn plant response rating (corn; [6]) | Plant response rating, Corn (corn; [7]) | Corn plant response rating (corn; [8]) | Corn plant response rating (corn; [9]) | Corn plant response rating (0 to 10 scale) (corn; Preemergence, Rate 250 g/ha) | Corn plant response rating (corn; [10]) | Plant response rating, Rice (0 to 10 scale, 0 is no effect, 10 is complete control) (rice; [1]) | Rice plant response rating (0 to 10 scale, 0 is no effect, 10 is complete control) (rice; [2]) | Rice plant response rating (rice; [3]) | Rice plant response rating (rice; [4]) | Plant response rating, Barnyardgrass (0 to 10 scale, 0 is no effect, 10 is complete control) (bamyardgrass; [1]) | Barnyardgrass plant response rating (0 to 10 scale, 0 is no effect, 10 is complete control) (bamyardgrass; [2]) | Barnyardgrass plant response rating (bamyardgrass; [3]) | Barnyardgrass plant response rating (bamyardgrass; [4]) | Plant response rating, Wild oats (wild oat; [5]) | Wild oats plant response rating (wild oat; [6]) | Plant response rating, Wild oats (wild oat; [7]) | Wild oats plant response rating (wild oat; [8]) | Wild oats plant response rating (wild oat; [9]) | Wild oats plant response rating (wild oat; [10]) | Plant response rating, Velvetleaf (velvetleaf; [5]) | Velvetleaf plant response rating (velvetleaf; [8]) | Velvetleaf plant response rating (velvetleaf; [9]) | Velvetleaf plant response rating (velvetleaf; [10]) | Crabgrass plant response rating (crabgrass; [11]) | Plant response rating, Crabgrass (crabgrass; [5]) | Crabgrass plant response rating (crabgrass; [6]) | Crabgrass plant response rating (crabgrass; [8]) | Crabgrass plant response rating (crabgrass; [9]) | Bedstraw plant response rating (bedstraw) | Plant response rating, Ducksalad (0 to 10 scale, 0 is no effect, 10 is complete control) (duck salad; [1]) | Ducksalad plant response rating (0 to 10 scale, 0 is no effect, 10 is complete control) (duck salad; [2]) | Ducksalad plant response rating (duck salad; [3]) | Ducksalad plant response rating (duck salad; [4]) | Plant response rating, Sugarbeets (sugar beet; [5]) | Sugarbeets plant response rating (sugar beet; [6]) | Plant response rating, Sugarbeets (sugar beet; [7]) | Sugarbeets plant response rating (sugar beet; [8]) | Sugarbeets plant response rating (sugar beet; [9]) | Sugarbeets plant response rating (sugar beet; [10]) | Morningglory plant response rating (morningglory; [8]) | Morningglory plant response rating (morningglory; [9]) | Morningglory plant response rating (morningglory; [10]) | Cocklebur plant response rating (cocklebur; [11]) | Plant response rating, Cocklebur (cocklebur; [5]) | Cocklebur plant response rating (cocklebur; [6]) | Plant response rating, Cocklebur (cocklebur; [7]) | Cocklebur plant response rating (cocklebur; [8]) | Cocklebur plant response rating (cocklebur; [9]) | Cocklebur plant response rating (0 to 10 scale) (cocklebur; Preemergence, Rate 250 g/ha) | Cocklebur plant response rating (cocklebur; [10]) | Rape plant response rating (rape; [11]) | Plant response rating, Rape (rape; [5]) | Rape plant response rating (rape; [6]) | Plant response rating, Rape (rape; [7]) | Rape plant response rating (rape; [8]) | Rape plant response rating (rape; [9]) | Rape plant response rating (rape; [10]) | Plant response rating, Wheat (wheat; [5]) | Wheat plant response rating (wheat; [6]) | Plant response rating, Wheat (wheat; [7]) | Wheat plant response rating (wheat; [8]) | Wheat plant response rating (wheat; [9]) | Wheat plant response rating (wheat; [10]) | B. signalgrass plant response rating (surinam grass; [11]) | Plant response rating, B. signalgrass (surinam grass; [5]) | B. signalgrass plant response rating (surinam grass; [6]) | Plant response rating, B. signalgrass (surinam grass; [7]) | B. signalgrass plant response rating (surinam grass; [8]) | B. signalgrass plant response rating (surinam grass; [9]) | B. signalgrass plant response rating (0 to 10 scale, 0 is no effect, 10 is complete control) (surinam grass; Preemergence, Rate 250 g/ha) | B. signalgrass plant response rating (surinam grass; [10]) | Blackgrass plant response rating (blackgrass; [11]) | Plant response rating, Blackgrass (blackgrass; [5]) | Blackgrass plant response rating (blackgrass; [6]) | Plant response rating, Blackgrass (blackgrass; [7]) | Blackgrass plant response rating (blackgrass; [8]) | Blackgrass plant response rating (blackgrass; [9]) | Blackgrass plant response rating (0 to 10 scale) (blackgrass; Preemergence, Rate 250 g/ha) | Blackgrass plant response rating (blackgrass; [10]) | Soybean plant response rating (soybean; [8]) | Soybean plant response rating (soybean; [9]) | Soybean plant response rating (soybean; [10])
1: Plant response rating, Soybean (soybean; [5])
4: Plant response rating, Morningglory (morningglory; [7])
7: Giant foxtail plant response rating (giant foxtail; [10])
